Measured values from patent publication US10787459B2, “Bicyclic compounds as ATX inhibitors” (Hoffmann-La Roche Inc., priority 2015, dated 2020).
Where two headings read alike, the source gives them in different places.

Biological target: ATX (human His-tagged) (Homo sapiens (Human), UniProt Q13822)
Experiment: Human ATX enzyme inhibition assay (fluorescence quenching, MR121 substrate)
Assay type: biochemical
Settings: 1 μM MR121 substrate, 30° C., pH 8.0
From the text: Human ATX Enzyme Inhibition Assay
Assay working solutions were made as follows:

IC50 (30 nM ATX, read-out: ATX IC50)	Structure (SMILES)	IC50 (ATX IC50, 30 nM ATX)
–	CO[C@]12CN(C(=O)c3cc(OCC4CCOCC4)nc(C4CC4)c3)C[C@@H]1CN(C(=O)N1CCc3[nH]nnc3C1)C2 (racemic) [Example 2.00, trans-[3a-Methoxy-5-(1,4,6,7-tetrahydrotriazolo[4,5-c]pyridine-5-carbonyl)-3,4,6,6a-tetrahydro-1H-pyrrolo[3,4-c]pyrrol-2-yl]-[2-cyclopropyl-6-(oxan-4-ylmethoxy)pyridin-4-yl]methanone]	12 nM
5 nM	O=C(OCc1ccc(OC(F)(F)F)cc1)N1C[C@@H]2CN(C(=O)c3ccc4[nH]nnc4c3)C[C@@]2(F)C1 (relative stereo) [Example 1.00, trans-5-(1H-Benzotriazole-5-carbonyl)-3a-fluoro-hexahydro-pyrrolo[3,4-c]pyrrole-2-carboxylic acid 4-trifluoromethoxy-benzyl ester]	–
12 nM	CO[C@]12CN(C(=O)OCc3ccc(OC(F)(F)F)cc3)C[C@@H]1CN(C(=O)c1ccc3[nH]nnc3c1)C2 (relative stereo) [Example 1.01, trans-5-(1H-benzotriazole-5-carbonyl)-3a-methoxy-hexahydro-pyrrolo[3,4-c]pyrrole-2-carboxylic acid 4-trifluoromethoxy-benzyl ester]	–
10 nM	CO[C@]12CN(C(=O)CCc3ccc(OC(F)(F)F)cc3)C[C@@H]1CN(C(=O)c1ccc3[nH]nnc3c1)C2 (relative stereo) [Example 1.02, trans-1-[5-(1H-benzotriazole-5-carbonyl)-3a-methoxy-3,4,6,6a-tetrahydro-1H-pyrrolo[3,4-c]pyrrol-2-yl]-3-[4-(trifluoromethoxy)phenyl]propan-1-one]	–
13 nM	CO[C@@]12CN(C(=O)c3cc(OCC4CCOCC4)nc(C4CC4)c3)C[C@H]1CN(C(=O)c1ccc3[nH]nnc3c1)C2 (relative stereo) [Example 1.03, trans-[5-[2-cyclopropyl-6-(oxan-4-ylmethoxy)pyridine-4-carbonyl]-3a-methoxy-3,4,6,6a-tetrahydro-1H-pyrrolo[3,4-c]pyrrol-2-yl]-(1H-benzotriazol-5-yl)methanone]	–
13 nM	C[C@]12CN(C(=O)OCc3ccc(OC(F)(F)F)cc3)C[C@@H]1CN(C(=O)c1ccc3[nH]nnc3c1)C2 (relative stereo) [Example 1.04, trans-5-(1H-benzotriazole-5-carbonyl)-3a-methyl-hexahydro-pyrrolo[3,4-c]pyrrole-2-carboxylic acid 4-trifluoromethoxy-benzyl ester]	–
18 nM	CO[C@]12CN(C(=O)CCc3ccc(OC(F)(F)F)cc3)C[C@@H]1CN(C(=O)c1ccc3[nH]c(=O)n(C)c3c1)C2 (relative stereo) [Example 1.05, trans-5-[3a-methoxy-2-[3-[4-(trifluoromethoxy)phenyl]propanoyl]-3,4,6,6a-tetrahydro-1H-pyrrolo[3,4-c]pyrrole-5-carbonyl]-3-methyl-1H-benzimidazol-2-one]	–
2 nM	CO[C@@]12CN(C(=O)c3cc(OCC4CCOCC4)nc(C4CC4)c3)C[C@H]1CN(C(=O)c1ccc3[nH]c(=O)n(C)c3c1)C2 (relative stereo) [Example 1.06, trans-5-[5-[2-cyclopropyl-6-(oxan-4-ylmethoxy)pyridine-4-carbonyl]-3a-methoxy-3,4,6,6a-tetrahydro-1H-pyrrolo[3,4-c]pyrrole-2-carbonyl]-3-methyl-1H-benzimidazol-2-one]	–
30 nM	CO[C@]12CN(C(=O)CCc3ccc(OC(F)(F)F)cc3)C[C@@H]1CN(C(=O)N1CCc3[nH]nnc3C1)C2 (relative stereo) [Example 2.01, trans-1-[3a-methoxy-5-(1,4,6,7-tetrahydrotriazolo[4,5-c]pyridine-5-carbonyl)-3,4,6,6a-tetrahydro-1H-pyrrolo[3,4-c]pyrrol-2-yl]-3-[4-(trifluoromethoxy)phenyl]propan-1-one]	–
–	CO[C@]12CN(C(=O)c3cc(OCC4CCOCC4)nc(C4CC4)c3)C[C@@H]1CN(C(=O)N1CCc3[nH]nnc3C1)C2 (single isomer, unassigned) [Example 3.00, trans-[3a-methoxy-5-(1,4,6,7-tetrahydrotriazolo[4,5-c]pyridine-5-carbonyl)-3,4,6,6a-tetrahydro-1H-pyrrolo[3,4-c]pyrrol-2-yl]-[2-cyclopropyl-6-(oxan-4-ylmethoxy)pyridin-4-yl]methanone]	6 nM
12 nM	C[C@@]12CN(C(=O)OCc3ccc(OC(F)(F)F)cc3)C[C@H]1CN(C(=O)c1ccc3[nH]nnc3c1)C2 (single isomer, unassigned) [Example 3.02, (+)-trans-5-(1H-benzotriazole-5-carbonyl)-3a-methyl-hexahydro-pyrrolo[3,4-c]pyrrole-2-carboxylic acid 4-trifluoromethoxy-benzyl ester]	–
19 nM	CO[C@@]12CN(C(=O)OCc3ccc(OC(F)(F)F)cc3)C[C@H]1CN(C(=O)c1ccc3[nH]nnc3c1)C2 (single isomer, unassigned) [Example 3.03, (−)-trans-5-(1H-benzotriazole-5-carbonyl)-3a-methoxy-hexahydro-pyrrolo[3,4-c]pyrrole-2-carboxylic acid 4-trifluoromethoxy-benzyl ester]	–
–	CO[C@]12CN(C(=O)c3cc(OCC4CCOCC4)nc(C4CC4)c3)C[C@@H]1CN(C(=O)N1CCc3[nH]nnc3C1)C2 (single isomer, unassigned) [Example 4.00, trans-[3a-methoxy-5-(1,4,6,7-tetrahydrotriazolo[4,5-c]pyridine-5-carbonyl)-3,4,6,6a-tetrahydro-1H-pyrrolo[3,4-c]pyrrol-2-yl]-[2-cyclopropyl-6-(oxan-4-ylmethoxy)pyridin-4-yl]methanone]	10 nM
6 nM	C[C@@]12CN(C(=O)OCc3ccc(OC(F)(F)F)cc3)C[C@H]1CN(C(=O)c1ccc3[nH]nnc3c1)C2 (single isomer, unassigned) [Example 4.02, (−)-trans-5-(1H-benzotriazole-5-carbonyl)-3a-methyl-hexahydro-pyrrolo[3,4-c]pyrrole-2-carboxylic acid 4-trifluoromethoxy-benzyl ester]	–
7 nM	CO[C@@]12CN(C(=O)OCc3ccc(OC(F)(F)F)cc3)C[C@H]1CN(C(=O)c1ccc3[nH]nnc3c1)C2 (single isomer, unassigned) [Example 4.03, (+)-trans-5-(1H-benzotriazole-5-carbonyl)-3a-methoxy-hexahydro-pyrrolo[3,4-c]pyrrole-2-carboxylic acid 4-trifluoromethoxy-benzyl ester]	–

Structure (SMILES)	IC50 (30 nM ATX, read-out: ATX IC50)	IC50 (ATX IC50, 30 nM ATX)
CO[C@]12CN(C(=O)CCc3ccc(OC(F)(F)F)cc3)C[C@@H]1CN(C(=O)N1CCc3c(O)noc3C1)C2 (relative stereo) [Example 2.02, trans-1-[5-(3-hydroxy-5,7-dihydro-4H-[1,2]oxazolo[5,4-c]pyridine-6-carbonyl)-3a-methoxy-3,4,6,6a-tetrahydro-1H-pyrrolo[3,4-c]pyrrol-2-yl]-3-[4-(trifluoromethoxy)phenyl]propan-1-one]	120 nM	–
CO[C@]12CN(C(=O)c3cc(OCC4CCOCC4)nc(C4CC4)c3)C[C@@H]1CN(C(=O)N1CCc3c(O)noc3C1)C2 (relative stereo) [Example 2.03, trans-[5-(3-hydroxy-5,7-dihydro-4H-[1,2]oxazolo[5,4-c]pyridine-6-carbonyl)-3a-methoxy-3,4,6,6a-tetrahydro-1H-pyrrolo[3,4-c]pyrrol-2-yl]-[2-cyclopropyl-6-(oxan-4-ylmethoxy)pyridin-4-yl]methanone]	18 nM	–
CO[C@@]12CN(C(=O)c3cc(OCC4CCOCC4)nc(C4CC4)c3)C[C@H]1CN(C(=O)N1CCc3c(O)noc3C1)C2 (single isomer, unassigned) [Example 3.01, trans-[5-(3-hydroxy-5,7-dihydro-4H-[1,2]oxazolo[5,4-c]pyridine-6-carbonyl)-3a-methoxy-3,4,6,6a-tetrahydro-1H-pyrrolo[3,4-c]pyrrol-2-yl]-[2-cyclopropyl-6-(oxan-4-ylmethoxy)pyridin-4-yl]methanone]	20 nM	–
CO[C@@]12CN(C(=O)c3cc(OCC4CCOCC4)nc(C4CC4)c3)C[C@H]1CN(C(=O)N1CCc3c(O)noc3C1)C2 (single isomer, unassigned) [Example 4.01, trans-[5-(3-hydroxy-5,7-dihydro-4H-[1,2]oxazolo[5,4-c]pyridine-6-carbonyl)-3a-methoxy-3,4,6,6a-tetrahydro-1H-pyrrolo[3,4-c]pyrrol-2-yl]-[2-cyclopropyl-6-(oxan-4-ylmethoxy)pyridin-4-yl]methanone]	8 nM	–
